Consider 49 molecules from US8895581B2, “1H-imidazo[4,5-c]quinolines” (Boehringer Ingelheim International GmbH, priority 2010, dated 2014).

Sequence of Recombinant human PDK1 enzyme (aa 52-556) (O15530 52-556): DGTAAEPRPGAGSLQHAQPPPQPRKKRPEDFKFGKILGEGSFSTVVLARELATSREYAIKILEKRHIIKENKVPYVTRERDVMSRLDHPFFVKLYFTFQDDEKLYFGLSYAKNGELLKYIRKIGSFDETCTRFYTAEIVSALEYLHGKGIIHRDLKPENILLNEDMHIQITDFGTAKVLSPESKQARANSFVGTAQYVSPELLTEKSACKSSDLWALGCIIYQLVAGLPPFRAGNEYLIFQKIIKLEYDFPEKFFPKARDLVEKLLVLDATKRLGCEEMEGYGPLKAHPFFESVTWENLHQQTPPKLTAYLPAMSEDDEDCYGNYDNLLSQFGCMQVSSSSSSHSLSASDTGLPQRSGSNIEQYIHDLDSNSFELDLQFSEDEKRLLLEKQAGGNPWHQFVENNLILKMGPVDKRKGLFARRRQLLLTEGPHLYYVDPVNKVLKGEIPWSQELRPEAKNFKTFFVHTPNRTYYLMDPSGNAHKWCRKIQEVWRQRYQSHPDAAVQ

For this experiment, the target named is Recombinant human PDK1 enzyme (aa 52-556) (Homo sapiens (Human), UniProt O15530). The experiment can be described thus: PDK1 kinase assay. In kind it is biochemical. The following applies: 25 μM ATP solution with gamma-P33-ATP, PDKtide substrate, 90 min at RT. Here is the method: The activity of the compounds according to the invention on the kinase PDK1 which inhibits the signal transduction pathway is determined in an in vitro kinase assay with recombinantly prepared protein:
Recombinant human PDK1 enzyme (aa 52-556) linked at its N-terminal end to His6 is isolated from baculovirus-infected insect cells. Purified enzyme may be obtained for example from the University of Dundee, Scotland. The following components are combined in a well of a 96-well round-based dish (Greiner bio-one, No. 650101): • 1. 15 μL of compound to be tested in varying concentrations (e.g. starting at 10 μM, and diluted in steps of 1:5) in APT buffer (50 mM Tris/Cl pH7.5; 0.05% β-mercaptoethanol; 10 mM Mg-acetate; 0.0166% Tween 20; 3.33% DMSO) • 2. 15 μL His6-PDK1 (aa 52-556) 3.33 ng/well) and PDKtide (KTFCGTPEYLAPEVRRE […]), synthesised by Pepceuticals Limited, Nottingham, United Kingdom; 25 μM final concentration); His6-PDK1 and PDKtide are together diluted accordingly in assay buffer (50 mM tris pH 7.5, 0.05% β-mercaptoethanol, 10 mM Mg-acetate); PDKtide is present in this mixture as an 83.3 μM solution. These 30 μl are routinely incubated for 30 min at RT. • 3. 20 μL ATP solution (25 μM ATP with 1.0 μCi/well gamma-P33-ATP). The final concentration of Tween 20 is 0.005%.
The reaction is started by adding the ATP solution and the mixture is incubated for 90 min at RT. At the start of the reaction the dishes are shaken gently. The reaction is stopped by the addition of 50 μL/well of 500 mM phosphoric acid (H3PO4) and incubated for about 20 min at RT. The precipitate is transferred by harvesting onto filter plates (96-well microtitre filter plate: UniFilter GF/C; Perkin Elmer; No. 6005174), then washed 6 times with 50 mM H3PO4 and dried at 60° C. Then the plate is stuck down with sealing tape, 25 μL/well of scintillation solution (Microscint 0; Perkin Elmer; No. 6013611) are added and the amount of P33 precipitated is measured using the Wallac Betacounter. The measured data are evaluated using Graphpad Prism software.
As usually defined, the IC50 is the point on the concentration scale where inhibition reaches its midpoint. As to `Cc1nc2cnc3ccc(C#CCNC(=O)c4cccn(CC5CCOCC5)c4=O)cc3c2n1C(C)C` [II-24], the half-inhibitory concentration (IC50) turned out to be 590 nM.
`CCOc1cc(C(=O)NCC#Cc2ccc3ncc4ncn(C(C)C)c4c3c2)c(=O)n(Cc2ccc(F)c(F)c2)n1` [IV-1, 2-(3,4-difluorobenzyl)-6-ethoxy-3-oxo-2,3-dihydro-pyridazine-4-carboxylic acid [3-(1-isopropyl-1H-imidazo[4,5-c]quinolin-8-yl)-prop-2-ynyl]-amide]: the 50% inhibitory concentration (IC50) was found to be 5 nM.
With `Cc1nc2cnc3ccc(C#CCNC(=O)c4cncn(Cc5ccc(F)c(F)c5)c4=O)cc3c2n1C1CCCOC1` (stereo not shown) [III-28] the figure was 2 nM; with `Cc1nc2cnc3ccc(C#CCNC(=O)c4cccn(Cc5ccc(F)c(F)c5)c4=O)cc3c2n1C1CCN(C)CC1` [II-34], 6 nM.
For the molecule `Cc1nc2cnc3ccc(C#CCNC(=O)c4cccn(Cc5ccc(F)c(F)c5)c4=O)cc3c2n1C(C)C` [II-3], the IC50 worked out at 2 nM.
With `Cc1nc2cnc3ccc(C#CCNC(=O)c4cccn(CC5CCCCO5)c4=O)cc3c2n1C(C)C` (stereo not shown) [II-25] the figure was 1020 nM.
With `Cc1nc2cnc3ccc(C#CCNC(=O)c4cccn([C@@H](CO)c5cccc(F)c5)c4=O)cc3c2n1[C@H]1CC[C@H](N(C)C)CC1` [III-24] the figure was 3 nM; with `Cc1nc2cnc3ccc(C#CCNC(=O)c4cncn(Cc5ccc(F)c(F)c5)c4=O)cc3c2n1C` [III-34], 8 nM.
Next, `CCc1nc2cnc3ccc(C#CCNC(=O)c4cncn(Cc5ccc(F)c(F)c5)c4=O)cc3c2n1C` [V-3]: 8 nM; `CN1CCC[C@@H](n2cnc3cnc4ccc(C#CCNC(=O)c5cncn(Cc6ccc(F)c(F)c6)c5=O)cc4c32)C1` [I-9]: 10 nM.
`Cc1nc2cnc3ccc(C#CCNC(=O)c4cccn([C@@H](C)C5CCCCC5)c4=O)cc3c2n1C(C)C` [II-14]: the IC50 is 34 nM.
With `Cc1cc(C(=O)NCC#Cc2ccc3ncc4ncn([C@H]5CC[C@@H](N(C)C)CC5)c4c3c2)c(=O)n(Cc2ccc(F)c(F)c2)n1` [III-3] the figure was 15 nM.
For `Cc1nc2cnc3ccc(C#CCNC(=O)c4c(C)n(C)n(Cc5ccc(F)c(F)c5)c4=O)cc3c2n1C(C)C` [II-16], the IC50 stood at 5 nM.
Next, `CN(C)[C@H]1CC[C@H](n2cnc3cnc4ccc(C#CCNC(=O)c5cccn([C@@H](CO)c6cccc(F)c6)c5=O)cc4c32)CC1` [III-26]: 1 nM; `COCCc1nc2cnc3ccc(C#CCNC(=O)c4cncn(Cc5ccc(F)c(F)c5)c4=O)cc3c2n1C` [V-5, 1-(3,4-difluoro-benzyl)-6-oxo-1,6-dihydro-pyrimidine-5-carboxylic acid {3-[2-(2-methoxy-ethyl)-1-methyl-1H-imidazo[4,5-c]quinolin-8-yl]-prop-2-ynyl}-amide]: 24 nM.
Regarding `CCn1c(C)nc2cnc3ccc(C#CCNC(=O)c4cncn(Cc5ccc(F)c(F)c5)c4=O)cc3c21` [III-33], the half-maximal inhibitory concentration (IC50) turned out to be 2 nM.
Consider `Cc1nc2cnc3ccc(C#CCNC(=O)c4cccn(CC5CCCOC5)c4=O)cc3c2n1C(C)C` (stereo not shown) [II-29], for which the IC50 turned out to be 202 nM.
Next, `CN(C)CCn1cnc2cnc3ccc(C#CCNC(=O)c4cncn(Cc5ccc(F)c(F)c5)c4=O)cc3c21` [I-5]: 50 nM; `Cc1nc2cnc3ccc(C#CCNC(=O)c4cccn([C@H](CO)c5cccc(F)c5)c4=O)cc3c2n1C(C)C` [II-6]: 1 nM.
Next, `CN1CC[C@@H](n2cnc3cnc4ccc(C#CCNC(=O)c5cccn(Cc6ccc(F)c(F)c6)c5=O)cc4c32)C1` [III-15]: 20 nM.
With `CN(C)CCCc1nc2cnc3ccc(C#CCNC(=O)c4cncn(Cc5ccc(F)c(F)c5)c4=O)cc3c2n1C` [V-9] the figure was 6 nM; with `CN1CCC(n2cnc3cnc4ccc(C#CCNC(=O)c5cncn(Cc6ccc(F)c(F)c6)c5=O)cc4c32)CC1` [I-10], 2 nM.
Take `Cc1nc2cnc3ccc(C#CCNC(=O)c4cccn(CC5CCCC5)c4=O)cc3c2n1C(C)C` [II-26]: the concentration for half-maximal inhibition (IC50) was 27 nM.
Next, `O=C(NCC#Cc1ccc2ncc3ncn(C4CCOC4)c3c2c1)c1cccn([C@@H](CO)c2cccc(F)c2)c1=O` (stereo partly shown) [III-22]: 7 nM; `Cc1nc2cnc3ccc(C#CCNC(=O)c4cccn([C@@H](CO)c5cccc(F)c5)c4=O)cc3c2n1[C@H]1CC[C@@H](N(C)C)CC1` [III-25]: 4 nM; `CC(C)n1cnc2cnc3ccc(C#CCNC(=O)c4cncn(Cc5ccc(F)c(F)c5)c4=O)cc3c21` [III-32]: 2 nM.
Next, `Cc1nc2cnc3ccc(C#CCNC(=O)c4cccn(C[C@H]5CCCC[C@H]5O)c4=O)cc3c2n1C(C)C` [II-28]: 221 nM.
Next, `CC(C)N1CCC(n2cnc3cnc4ccc(C#CCNC(=O)c5cccn([C@@H](C)c6ccc(F)c(F)c6)c5=O)cc4c32)CC1` [III-2]: 2 nM; `Cc1nc2cnc3ccc(C#CCNC(=O)c4cccn([C@H](C)C5CCCCC5)c4=O)cc3c2n1C(C)C` [II-8]: 507 nM; `Cn1cnc2cnc3ccc(C#CCNC(=O)c4cncn(Cc5ccc(F)c(F)c5)c4=O)cc3c21` [III-30]: 5 nM.
In the case of `CN(C)Cc1nc2cnc3ccc(C#CCNC(=O)c4cncn(Cc5ccc(F)c(F)c5)c4=O)cc3c2n1C` [V-8, 1-(3,4-difluoro-benzyl)-6-oxo-1,6-dihydro-pyrimidine-5-carboxylic acid [3-(2-dimethylaminomethyl-1-methyl-1H-imidazo[4,5-c]quinolin-8-yl)-prop-2-ynyl]-amide], the concentration for half-maximal inhibition (IC50) was found to be 79 nM.
Next, `O=C(NCC#Cc1ccc2ncc3nc[nH]c3c2c1)c1cncn(Cc2ccc(F)c(F)c2)c1=O` [I-1, 1-(3,4-difluoro-benzyl)-6-oxo-1,6-dihydro-pyrimidine-5-carboxylic acid [3-(1H-imidazo[4,5-c]quinolin-8-yl)-prop-2-ynyl]-amide]: 1 nM; `CCn1cnc2cnc3ccc(C#CCNC(=O)c4cncn(Cc5ccc(F)c(F)c5)c4=O)cc3c21` [III-31]: 1 nM; `Cc1nc2cnc3ccc(C#CCNC(=O)c4c(C)n(C)n(C(C)c5ccc(F)c(F)c5)c4=O)cc3c2n1C(C)C` (stereo not shown) [II-15]: 5 nM.
With `COc1cc(C(=O)NCC#Cc2ccc3ncc4nc(C)n(C(C)C)c4c3c2)c(=O)n(Cc2ccc(F)c(F)c2)n1` [II-19] the figure was 1 nM; with `CCOc1nc2cnc3ccc(C#CCNC(=O)c4cncn(Cc5ccc(F)c(F)c5)c4=O)cc3c2n1C` [V-1, 1-(3,4-difluoro-benzyl)-6-oxo-1,6-dihydro-pyrimidine-5-carboxylic acid [3-(2-ethoxy-1-methyl-1H-imidazo[4,5-c]quinolin-8-yl)-prop-2-ynyl]-amide], 33 nM; with `Cc1nc2cnc3ccc(C#CCNC(=O)c4cccn([C@@H](CN)c5ccc(F)c(F)c5)c4=O)cc3c2n1C(C)C` [II-30], 2 nM.
With `NC[C@@H](c1ccccc1)n1cccc(C(=O)NCC#Cc2ccc3ncc4ncn(C5CCOC5)c4c3c2)c1=O` (stereo partly shown) [III-29], the IC50 stood at 681 nM.
Next, `COCc1nc2cnc3ccc(C#CCNC(=O)c4cncn(Cc5ccc(F)c(F)c5)c4=O)cc3c2n1C` [V-7]: 41 nM; `Cn1c(-c2ccccc2)nc2cnc3ccc(C#CCNC(=O)c4cncn(Cc5ccc(F)c(F)c5)c4=O)cc3c21` [V-2]: 72 nM.
With `Cc1nc2cnc3ccc(C#CCNC(=O)c4cccn(CC5CCCCC5)c4=O)cc3c2n1C(C)C` [II-18] the figure was 14 nM; with `Cc1nc2cnc3ccc(C#CCNC(=O)c4cccn(Cc5ccccc5)c4=O)cc3c2n1C(C)C` [II-2], 8 nM; with `O=C(NCC#Cc1ccc2ncc3ncn(CCO)c3c2c1)c1cccn(Cc2ccccc2)c1=O` [III-12], 68 nM.
Next, `CC(C)N1CCC(n2cnc3cnc4ccc(C#CCNC(=O)c5cncn(Cc6ccc(F)c(F)c6)c5=O)cc4c32)CC1` [I-11]: 11 nM.
In the case of `O=C(NCC#Cc1ccc2ncc3ncn(CCO)c3c2c1)c1cncn(Cc2ccc(F)c(F)c2)c1=O` [I-2], the concentration for half-maximal inhibition (IC50) came out at 4 nM.
With `Cc1nc2cnc3ccc(C#CCNC(=O)c4cccn([C@@H](C)c5ccc(F)c(F)c5)c4=O)cc3c2n1[C@H]1CC[C@H](N(C)C)CC1` [III-23] the figure was 1 nM; with `CCc1c(C(=O)NCC#Cc2ccc3ncc4nc(C)n(C(C)C)c4c3c2)c(=O)n(Cc2ccc(F)c(F)c2)n1C` [II-12], 5 nM.
Next, `Cc1nc2cnc3ccc(C#CCNC(=O)c4cccn([C@@H](CO)c5ccccc5)c4=O)cc3c2n1C(C)C` [II-21]: 2 nM.
Next, `O=C(NCC#Cc1ccc2ncc3ncn(C4CCNCC4)c3c2c1)c1cccn([C@H](CO)c2ccccc2)c1=O` [III-8]: 2010 nM.
